2 compounds from patent US9723817B2 (priority 2011, dated 2017) can be followed below.

One assay deals with wild type N2 C. elegans. Nature of the assay: EPG recording of pharyngeal pumping in microfluidic EPG array, wild type worms. The class given is in vivo, Caenorhabditis elegans. The procedure:
(§1) C. elegans strains were grown on Nematode Growth Medium (NGM) agar plates seeded with the OP50 strain of E. coli. All strains were obtained from the Caenorhabditis Genetics Center (CGC; Minneapolis, Minn.). Wild-type worms were Bristol N2 and Ivermectin (IVM) resistant mutants were DA1316 avr-14(ad1302); avr-15(ad1051); glc-1(pk54). Worms were age synchronized by allowing gravid adults to lay eggs on seeded NGM plates for approximately 6 hr. The adults were then removed and embryos allowed to develop to adulthood at room temperature.
All experiments utilized M9 buffer (recipe available on the World Wide Web at 130.15.90.245/wormlab_recipe_book.htm#Commonlab; containing KH2PO4, NaHPO4, NaCl and MgSO4) to which serotonin (5HT) was added to stimulate pharyngeal pumping (Raizen and Avery, Neuron 1994 March; 12(3):483-95). Stocks of serotonin creatine sulfate monohydrate (Sigma H7752; St. Louis, Mo.) were prepared in M9 buffer at 40 mM and held in small aliquots at −20° C. until use. Each day of an experiment, a fresh aliquot was thawed and diluted to 10 mM 5HT in M9 buffer. This “M9-5HT” buffer was the control medium to which drugs or other compounds were added. Stock solutions of ivermectin (10 mM; Sigma 8898) were made up in dimethyl sulfoxide (DMSO, Fisher D-136; Fair Lawn, N.J.) and held at −20° C. for no longer than 2 wk. On the day of an experiment, IVM was diluted to the final concentration in M9-5HT buffer containing 0.005% Fast Green (Fisher F-99) as a visual indicator of drug flow within the chip (see below). The dye-containing M9-5HT buffer was filtered (PALL Life Sciences 25 mm Acrodisc syringe filter with 0.2 μm HT Tuffryn Membrane; Port Washington, N.Y.) before drug or DMSO was added.
Young adult worms were transferred from growth plates into a glass well containing M9-5HT buffer and left to acclimate for 10 minutes. […]
(§2) EPGs were recorded by a pair of 4-channel AC differential amplifiers (A-M Systems model 1700, Carlsborg, Wash.) connected to electrodes inserted into the device. […]

The test system of assay [1] is ivermectin resistance mutant C. elegans avr-14(ad1302); avr-15(ad1051); glc-1(pk54). Nature of the assay: EPG recording of pharyngeal pumping in microfluidic EPG array, ivermectin-resistant mutant worms. The class given is in vivo, Caenorhabditis elegans. To be noted: 10 μM ivermectin in M9-5HT buffer, ivermectin-resistant mutant (FIG. 5). The protocol: as §1
All experiments utilized M9 buffer (recipe available on the World Wide Web at 130.15.90.245/wormlab_recipe_book.htm#Commonlab; containing KH2PO4, NaHPO4, NaCl and MgSO4) to which serotonin (5HT) was added to stimulate pharyngeal pumping (Raizen and Avery, Neuron 1994 March; 12(3):483-95). Stocks of serotonin creatine sulfate monohydrate (Sigma H7752; St. Louis, Mo.) were prepared in M9 buffer at 40 mM and held in small aliquots at −20° C. until use. Each day of an experiment, a fresh aliquot was thawed and diluted to 10 mM 5HT in M9 buffer. This “M9-5HT” buffer was the control medium to which drugs or other compounds were added. […]
as §2

Turning to `c1ccc([C@H]2CN3CCSC3=N2)cc1` [levamisole], the “inhibition of pharyngeal pumping (EPG)” value in the assay on wild type N2 C. elegans (10 mM levamisole in M9-5HT buffer, within 10 minutes (FIG. 6B)) was “completely inhibited”. The “pharyngeal pumping after washout of drug (EPG)” value in the assay on wild type N2 C. elegans (after 10 mM levamisole, within 60 minutes of wash onset with control buffer (FIG. 6C)) was “returned to normal”.

As to ivermectin, in assay [1], the “block of pharyngeal pumping (EPG)” value is “failed to block”. Moreover, in the assay on wild type N2 C. elegans (10 μM ivermectin in M9-5HT buffer, 10 minutes after treatment, all eight C. elegans (FIG. 4)), the “size and frequency of EPG signal” value is on record as “significantly reduced or even eliminated”.
